Measured values published in ChEMBL document CHEMBL5291721, “A preclinical secondary pharmacology resource illuminates target-adverse drug reaction associations of marketed drugs” (Nat Commun, 2023).

How the values were obtained:
Androgen receptor = biological target: T1, Androgen receptor (Rattus norvegicus, UniProt P15207)
T1 sequence (P15207 whole entry): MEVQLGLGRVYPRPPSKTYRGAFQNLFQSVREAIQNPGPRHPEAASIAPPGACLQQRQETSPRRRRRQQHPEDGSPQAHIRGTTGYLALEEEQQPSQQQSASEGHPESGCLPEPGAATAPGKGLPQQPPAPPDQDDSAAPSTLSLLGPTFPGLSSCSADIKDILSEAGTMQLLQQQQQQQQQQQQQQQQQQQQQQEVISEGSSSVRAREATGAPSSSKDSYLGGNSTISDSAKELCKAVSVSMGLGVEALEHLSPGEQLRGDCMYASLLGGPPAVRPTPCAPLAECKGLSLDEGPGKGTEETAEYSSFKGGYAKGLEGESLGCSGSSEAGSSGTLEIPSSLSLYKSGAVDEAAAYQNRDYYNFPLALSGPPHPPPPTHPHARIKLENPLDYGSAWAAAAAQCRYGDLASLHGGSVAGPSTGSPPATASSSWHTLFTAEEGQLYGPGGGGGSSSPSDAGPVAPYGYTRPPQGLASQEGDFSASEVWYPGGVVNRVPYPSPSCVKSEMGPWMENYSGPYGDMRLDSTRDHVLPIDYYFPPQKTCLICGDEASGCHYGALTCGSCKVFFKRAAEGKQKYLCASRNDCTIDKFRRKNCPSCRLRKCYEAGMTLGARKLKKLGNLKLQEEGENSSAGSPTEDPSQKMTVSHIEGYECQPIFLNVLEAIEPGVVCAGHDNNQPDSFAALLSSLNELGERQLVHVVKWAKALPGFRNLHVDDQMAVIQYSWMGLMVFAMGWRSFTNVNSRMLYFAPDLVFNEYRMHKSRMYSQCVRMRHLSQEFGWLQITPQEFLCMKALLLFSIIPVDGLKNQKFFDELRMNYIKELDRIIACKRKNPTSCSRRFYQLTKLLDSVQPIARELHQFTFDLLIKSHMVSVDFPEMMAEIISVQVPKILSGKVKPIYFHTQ

[1] = biological target: T2, Neuropeptide Y receptor type 2 (Homo sapiens, UniProt P49146)
T2 sequence (P49146 whole entry): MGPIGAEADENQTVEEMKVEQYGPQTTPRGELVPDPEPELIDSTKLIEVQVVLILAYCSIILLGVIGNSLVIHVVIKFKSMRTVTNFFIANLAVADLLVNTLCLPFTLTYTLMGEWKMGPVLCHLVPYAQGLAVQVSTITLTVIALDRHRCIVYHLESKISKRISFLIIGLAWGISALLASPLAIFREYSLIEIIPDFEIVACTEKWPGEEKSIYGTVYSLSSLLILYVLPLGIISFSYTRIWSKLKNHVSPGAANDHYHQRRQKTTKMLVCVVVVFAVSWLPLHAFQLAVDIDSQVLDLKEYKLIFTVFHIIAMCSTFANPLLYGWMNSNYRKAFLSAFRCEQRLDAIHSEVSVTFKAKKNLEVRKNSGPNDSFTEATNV

Glucagon receptor = Glucagon receptor (Homo sapiens, UniProt P47871)
[2] = biological target: T3, Corticotropin-releasing factor receptor 1 (Homo sapiens, UniProt P34998)
T3 sequence (P34998 whole entry): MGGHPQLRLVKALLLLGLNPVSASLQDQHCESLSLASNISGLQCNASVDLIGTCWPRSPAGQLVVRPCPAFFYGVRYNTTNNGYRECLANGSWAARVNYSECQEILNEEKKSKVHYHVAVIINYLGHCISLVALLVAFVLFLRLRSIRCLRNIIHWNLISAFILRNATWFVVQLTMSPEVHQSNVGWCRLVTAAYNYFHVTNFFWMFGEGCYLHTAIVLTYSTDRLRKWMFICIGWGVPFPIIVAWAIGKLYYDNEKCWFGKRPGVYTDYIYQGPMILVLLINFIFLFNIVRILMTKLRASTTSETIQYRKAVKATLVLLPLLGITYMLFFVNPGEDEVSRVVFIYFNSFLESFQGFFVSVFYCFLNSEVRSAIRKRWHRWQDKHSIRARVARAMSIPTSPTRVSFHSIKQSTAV

[3] = biological target: T4, 5-hydroxytryptamine receptor 1A (Homo sapiens, UniProt P08908)
T4 sequence (P08908 whole entry): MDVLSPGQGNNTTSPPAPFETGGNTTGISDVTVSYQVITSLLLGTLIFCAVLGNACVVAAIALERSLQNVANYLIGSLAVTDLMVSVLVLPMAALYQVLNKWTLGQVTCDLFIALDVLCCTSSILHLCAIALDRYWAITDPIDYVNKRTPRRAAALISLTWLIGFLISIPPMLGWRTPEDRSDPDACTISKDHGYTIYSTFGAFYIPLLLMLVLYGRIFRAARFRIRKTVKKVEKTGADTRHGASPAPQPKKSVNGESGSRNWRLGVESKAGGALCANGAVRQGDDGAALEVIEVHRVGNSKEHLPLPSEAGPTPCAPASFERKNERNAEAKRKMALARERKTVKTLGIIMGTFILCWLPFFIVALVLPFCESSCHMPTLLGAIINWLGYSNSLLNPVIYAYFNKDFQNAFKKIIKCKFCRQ

[4] = biological target: T5, Endothelin receptor type B (Homo sapiens, UniProt P24530)
T5 sequence (P24530 whole entry): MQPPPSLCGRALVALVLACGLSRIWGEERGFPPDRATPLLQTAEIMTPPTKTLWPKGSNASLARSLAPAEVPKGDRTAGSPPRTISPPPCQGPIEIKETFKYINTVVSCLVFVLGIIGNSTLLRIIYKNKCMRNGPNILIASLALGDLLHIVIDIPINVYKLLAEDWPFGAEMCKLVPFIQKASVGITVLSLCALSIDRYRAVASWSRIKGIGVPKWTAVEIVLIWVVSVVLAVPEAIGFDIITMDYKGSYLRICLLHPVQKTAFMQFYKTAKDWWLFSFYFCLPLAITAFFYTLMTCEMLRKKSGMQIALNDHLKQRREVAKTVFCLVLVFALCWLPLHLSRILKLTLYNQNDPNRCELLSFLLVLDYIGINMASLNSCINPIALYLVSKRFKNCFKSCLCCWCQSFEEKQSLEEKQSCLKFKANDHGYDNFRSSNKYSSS

[5] = biological target: Neurotensin receptor type 1 (Homo sapiens, UniProt P30989)
Note: assay procedure not described here.

Sequence of Glucagon receptor (P47871 whole entry): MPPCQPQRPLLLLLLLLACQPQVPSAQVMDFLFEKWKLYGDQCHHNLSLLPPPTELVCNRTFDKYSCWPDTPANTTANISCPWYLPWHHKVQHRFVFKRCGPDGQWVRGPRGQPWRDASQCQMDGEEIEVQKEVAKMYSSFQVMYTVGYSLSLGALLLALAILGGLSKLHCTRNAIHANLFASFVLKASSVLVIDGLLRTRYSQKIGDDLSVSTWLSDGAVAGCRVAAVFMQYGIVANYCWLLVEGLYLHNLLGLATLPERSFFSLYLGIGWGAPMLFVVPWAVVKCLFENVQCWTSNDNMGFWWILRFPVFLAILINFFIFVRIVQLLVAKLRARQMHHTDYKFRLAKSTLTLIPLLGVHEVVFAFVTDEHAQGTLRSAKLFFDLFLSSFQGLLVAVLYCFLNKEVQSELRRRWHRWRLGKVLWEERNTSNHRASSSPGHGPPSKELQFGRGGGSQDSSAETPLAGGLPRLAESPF
Sequence of Neurotensin receptor type 1 (P30989 whole entry): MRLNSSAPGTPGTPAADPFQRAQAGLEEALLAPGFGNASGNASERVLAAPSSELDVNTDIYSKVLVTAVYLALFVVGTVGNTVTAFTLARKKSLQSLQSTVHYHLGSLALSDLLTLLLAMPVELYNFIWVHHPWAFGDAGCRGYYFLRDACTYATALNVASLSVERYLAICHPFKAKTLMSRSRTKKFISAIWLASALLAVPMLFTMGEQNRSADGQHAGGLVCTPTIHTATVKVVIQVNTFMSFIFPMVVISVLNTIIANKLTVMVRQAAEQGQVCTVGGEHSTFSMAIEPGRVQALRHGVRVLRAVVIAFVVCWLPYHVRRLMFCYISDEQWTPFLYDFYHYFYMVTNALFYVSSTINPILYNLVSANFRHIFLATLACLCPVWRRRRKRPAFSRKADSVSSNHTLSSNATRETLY

Cc1c(C(=O)Nc2ccc(N3C[C@@H](C)O[C@@H](C)C3)nc2)cccc1-c1ccc(OC(F)(F)F)cc1 [SONIDEGIB]
AC50 (Androgen receptor): > 30 µM | AC50 [1]: > 30 µM | AC50 (Glucagon receptor): > 30 µM | AC50 [2]: > 30 µM | AC50 [3]: > 10 µM | AC50 [4]: > 30 µM | AC50 [5]: > 30 µM

CN(C)C(=O)OC1N=C(c2ccccc2)c2cc(Cl)ccc2N(C)C1=O (stereo unspecified) [CAMAZEPAM]
AC50 (Androgen receptor): > 30 µM | AC50 [1]: > 30 µM | AC50 (Glucagon receptor): > 30 µM | AC50 [2]: > 30 µM | AC50 [3]: > 10 µM | AC50 [4]: > 30 µM | AC50 [5]: > 30 µM

CCCCCN(C)CCC(O)(P(=O)(O)O)P(=O)(O)O [IBANDRONIC ACID]
AC50 (Androgen receptor): > 30 µM | AC50 [1]: > 30 µM | AC50 (Glucagon receptor): > 30 µM | AC50 [2]: > 30 µM | AC50 [3]: > 10 µM | AC50 [4]: > 30 µM | AC50 [5]: > 30 µM
